Test results: BigSolDB 2.1

CCS(=O)(=O)CCn1c([N+](=O)[O-])cnc1C
solubility (mole fraction)
Conditions	278.15 K	283.15 K	288.15 K	293.15 K	298.15 K	303.15 K	308.15 K	313.15 K	318.15 K	323.15 K
in 2-butoxyethanol	0.00191	0.00214	0.00276	0.00372	0.00446	0.0054	0.00687	0.00826	0.0106	0.0133
in 2-ethoxyethanol	0.00356	0.00437	0.00526	0.00647	0.00792	0.00957	0.012	0.0147	0.0181	0.0222
in 2-methoxyethanol	0.00839	0.0102	0.0118	0.0145	0.0175	0.0209	0.0257	0.0314	0.0377	0.0462
in 2-propoxyethanol	0.0022	0.00261	0.00329	0.00429	0.00513	0.00622	0.00778	0.00967	0.0123	0.0154
in DMAc	0.0509	0.0571	0.0655	0.0745	0.083	0.0944	0.107	0.121	0.136	0.154
in DMF	0.0454	0.0521	0.06	0.0691	0.0787	0.0905	0.104	0.119	0.134	0.152
in NMP	0.0704	0.0804	0.089	0.0987	0.109	0.122	0.137	0.15	0.167	0.183
in acetone	0.00866	0.011	0.0133	0.0161	0.0195	0.0233	0.028	0.0348	0.0426	0.0517
in ethanol	0.000263	0.000375	0.000479	0.000665	0.000836	0.0012	0.0016	0.00207	0.00277	0.00377
in ethyl acetate	0.00334	0.00412	0.00488	0.0057	0.00689	0.00825	0.0099	0.0118	0.0141	0.0168
in methanol	0.000928	0.00119	0.00157	0.00197	0.00263	0.00345	0.00448	0.00597	0.00785	0.0104
in methyl acetate	0.00557	0.00673	0.00791	0.0095	0.0114	0.0134	0.0159	0.0188	0.0223	0.0257
in n-butyl acetate	0.00199	0.00235	0.0029	0.00358	0.00421	0.00513	0.00617	0.0074	0.00898	0.0107
in n-propyl acetate	0.00255	0.00314	0.00377	0.00456	0.00543	0.00659	0.00783	0.00948	0.0114	0.0135
